# In patent publication US20210323908A1, “PROCESS FOR PRODUCING TCA CYCLE INTERMEDIATE CONJUGATES” (IMBRIA PHARMACEUTICALS, INC., priority 2020, published 2021):
# Assays:
# Format in all cases: physicochemical
# [1] = Solubility of the Type A crystal polymorph (stated as a conclusion, no method given); details: solid crystal polymorph identified as Type A
# [2] = Stability of the Type A crystal polymorph (stated as a conclusion, no method given); details: solid crystal polymorph identified as Type A
# [3] = Decomposition of the product in hot water, observed during work-up; details: in water at 70-80° C.
# Method: The reaction mixtures were filtered to remove solvents. The wet cake was charged to a reactor. […] 6 kg of MS001 Silica Thiol was added to the filtrate at about 60-70° C., stirred for 1 hour, and filtered through a pad of fresh Celite.
# A total of 20 kg of a compound of Formula (X) was made from 56.6 kg of a compound of Formula (IV), with 98.0% and a 73.5% yield. The yield of the manufacture is consistent to the Lab batch.
structure (smiles),measurement,setting,value
N[C@@H](COC(=O)CCC(=O)O)C(=O)O [Formula (X)],solubility of the solid crystal polymorph Type A,[1],soluble
same,stability of the solid crystal polymorph Type A,[2],highly stable
same,stability in water at elevated temperature,[3],could be decomposed in water
